Series [1] in a line: Renal clearance in iv dosed rat. It is filed as ADME, organism-based, Kidney. Particulars: in vivo.
Series [2] concerns Streptococcus pneumoniae. Put plainly: Antibacterial activity against Streptococcus pneumoniae. The class given is functional.
Series [3] in a line: Lipophilicity, log D of the compound. Particulars: octanol/water.
Series [4] in a line: Total clearance in iv dosed rat. The class given is ADME, organism-based. Particulars: in vivo.
Series [5] is described as follows: Plasma clearance in rat at 3 mg/kg, iv. The class given is ADME, organism-based. Also on record: dose 3 mg/kg, route intravenous.
For series [6], the system named is Streptococcus pneumoniae. The series is described as follows: Antimicrobial activity against Streptococcus pneumoniae D39. It is filed as functional.
The nature of series [7]: Solubility of the compound. The class given is physicochemical.
Series [8] in a line: Fraction unbound in human plasma. The class given is ADME, cell-free.
For another series, the system named is Rattus norvegicus. The series is described as follows: Hepatic blood flow in iv dosed rat. The following applies: in vivo. The class given is ADME, organism-based, Liver.
Series [9] is described as follows: Oral bioavailability in rat. The class given is ADME, organism-based. The following applies: in vivo.
The nature of series [10]: Clearance in iv dosed dog. It is filed as ADME, organism-based, Canis lupus familiaris. Particulars: in vivo.
The test system of the next series is Canis familiaris. The series is described as follows: Hepatic blood flow in iv dosed dog. The following applies: in vivo. The class given is ADME, organism-based, Canis lupus familiaris, Liver.
Series [11] in a line: Oral bioavailability in dog. It is filed as ADME, organism-based, Canis lupus familiaris. Particulars: in vivo.

These results are taken from ChEMBL document CHEMBL1933055, “Discovery of bacterial NAD⁺-dependent DNA ligase inhibitors: improvements in clearance of adenosine series” (Bioorg Med Chem Lett, 2012).

In brackets after ≈: the same amount, converted by molar mass.

Broadly, the MIC is the least concentration at which growth counts as inhibited. Read a low MIC as greater potency. One may read the logD as lipophilicity at a set pH, counting ionised and neutral species. What is called clearance is the rate of elimination divided by the concentration. Read a high clearance as efficient removal. Consider `C[C@H]1O[C@@H](n2cnc3c(N)nc(OC4CC(F)(F)C4(F)F)nc32)[C@H](O)[C@@H]1O` (some centres not stated), for which the CL renal in [1] stood at 16 mL/min/kg. For the same compound, the lowest concentration to inhibit growth against Streptococcus pneumoniae [2] (MIC) was 16 µg/mL (≈ 40.7 µM). This compound displayed a logD in [3] of 1.3. In addition, in [4], the clearance turned out to be 23 mL/min/kg.

Consider `C[C@H]1O[C@@H](n2cnc3c(N)nc(OCC4CCC(F)(F)CC4)nc32)[C@H](O)[C@@H]1O`, for which the CL renal in series [1] came out at 8 mL/min/kg. Besides, the MIC with Streptococcus pneumoniae [2] was 16 µg/mL (≈ 40.1 µM). In addition, in series [3], the logD turned out to be 1.7. This compound also registered a clearance in series [4] of 58 mL/min/kg.

Regarding `C[C@H]1O[C@@H](n2cnc3c(N)nc(OC4CCOC4)nc32)[C@H](O)[C@@H]1O` (some centres not stated), the CL renal in series [1] was 13 mL/min/kg. The MIC in the series with Streptococcus pneumoniae [2] worked out at 16 µg/mL (≈ 47.4 µM). The compound further came in with a logD in series [3] of -0.06. For the same compound, in [4], the clearance turned out to be 67 mL/min/kg.

As for `C[C@H]1O[C@@H](n2cnc3c(N)nc(OC4CCCC4)nc32)[C@H](O)[C@@H]1O`, the clearance in series [5] turned out to be 43 mL/min/kg. The lowest concentration to inhibit growth in the series on Streptococcus pneumoniae [6] (MIC) was 2 µg/mL (≈ 5.96 µM).

Take `Nc1nc(OCC2CCC2)nc2c1ncn2[C@@H]1O[C@H](CF)[C@@H](O)[C@H]1O`: the clearance in [5] amounted to 73 mL/min/kg. Besides, the MIC against Streptococcus pneumoniae [6] was 2 µg/mL (≈ 5.66 µM).

In the case of `Nc1nc(OCC2CC2)nc2c1ncn2[C@@H]1O[C@H](CF)[C@@H](O)[C@H]1O`, in series [1], the CL renal came to 13 mL/min/kg. This compound showed an MIC with Streptococcus pneumoniae [2] of 8 µg/mL (≈ 23.6 µM). For the same compound, the clearance in series [4] was found to be 49 mL/min/kg.

`C[C@H]1O[C@@H](n2cnc3c(N)nc(O[C@H]4CC[C@H](C)CC4)nc32)[C@H](O)[C@@H]1O`: the clearance in [5] was found to be 89 mL/min/kg. In the series on Streptococcus pneumoniae [6], it took 1 µg/mL (≈ 2.75 µM) to inhibit growth (MIC).

Turning to `C[C@H]1O[C@@H](n2cnc3c(N)nc(OCC4CC(F)(F)C4(F)F)nc32)[C@H](O)[C@@H]1O` (some centres not stated), in series [1], the CL renal is 17 mL/min/kg. In the series on Streptococcus pneumoniae [2], 4 µg/mL (≈ 9.82 µM) was the least that counted as inhibitory (MIC). This compound yielded a logD in series [3] of 1.4. Also, the clearance in series [4] is 85 mL/min/kg.

The solubility is the dissolved amount per volume that the medium holds. Read a high solubility as a readily soluble substance. As usually defined, the fraction unbound is the share of the substance not bound to proteins or other matrix. Lower therefore signals little free substance. For orientation: bioavailability means the share of a dose that reaches the circulation, judged against a reference dose that is usually intravenous. Read a low bioavailability as little systemic uptake. `C[C@H]1O[C@@H](n2cnc3c(N)nc(O[C@H]4CC[C@H](C(F)(F)F)CC4)nc32)[C@H](O)[C@@H]1O` came in with a CL renal in [1] of 2 mL/min/kg. The MIC in the series on Streptococcus pneumoniae [2] is 2 µg/mL (≈ 4.79 µM). Besides, the logD in [3] came to 2.2. Moreover, the clearance in series [4] worked out at 27 mL/min/kg; in [10] it was 7.7 mL/min/kg. In [7], this compound registered a solubility of 800 µM (≈ 334 µg/mL). For the same compound, the fraction unbound in series [8] was 0.2. Moreover, the QH with Rattus norvegicus was found to be 39%; in the series with Canis familiaris, 20%. Further, the bioavailability turned out to be 86% in series [9] and 88% in [11].

With `C[C@H]1O[C@@H](n2cnc3c(N)nc(OC(C4CC4)C(F)(F)F)nc32)[C@H](O)[C@@H]1O` (some centres not stated), in series [1], the CL renal stood at 5 mL/min/kg. This compound yielded an MIC against Streptococcus pneumoniae [2] of 8 µg/mL (≈ 20.5 µM). For the same compound, the logD in [3] was 1.8. The same compound yielded a clearance in [4] of 73 mL/min/kg.

With `C[C@H]1O[C@@H](n2cnc3c(N)nc(OCC4CC45CC5)nc32)[C@H](O)[C@@H]1O` (some centres not stated), the clearance in series [5] turned out to be 96 mL/min/kg. This compound also gave an MIC with Streptococcus pneumoniae [6] of 1 µg/mL (≈ 2.88 µM).

As to `C[C@H]1O[C@@H](n2cnc3c(N)nc(OC4CCC(F)(F)CC4)nc32)[C@H](O)[C@@H]1O`, the CL renal in series [1] was determined as 15 mL/min/kg. Moreover, inhibition of growth against Streptococcus pneumoniae [2] (MIC) required 8 µg/mL (≈ 20.8 µM). For the same compound, the clearance in [4] came to 33 mL/min/kg.

In [5], `Nc1nc(OC2CCCC2)nc2c1ncn2[C@@H]1O[C@H](CF)[C@@H](O)[C@H]1O` showed a clearance of 83 mL/min/kg. The compound also returned an MIC against Streptococcus pneumoniae [6] of 4 µg/mL (≈ 11.3 µM).

In turn, `C[C@H]1O[C@@H](n2cnc3c(N)nc(OC4C[C@@H]5C[C@@H]5C4)nc32)[C@H](O)[C@@H]1O` (some centres not stated) displayed a clearance in [5] of 50 mL/min/kg. The compound also displayed an MIC against Streptococcus pneumoniae [6] of 2 µg/mL (≈ 5.76 µM).

In turn, `CC1CC1COc1nc(N)c2ncn([C@@H]3O[C@H](CF)[C@@H](O)[C@H]3O)c2n1` (some centres not stated) registered a CL renal in series [1] of 11 mL/min/kg. This compound also had an MIC in the series on Streptococcus pneumoniae [2] of 4 µg/mL (≈ 11.3 µM). The same compound displayed a clearance in series [4] of 115 mL/min/kg.
